Test results reported in patent publication US8895585B2, “Nicotinamide derivative or salt thereof” (FUJIFILM Corporation, priority 2010, dated 2014).
Read-outs that look alike come from different tables or passages of the source.

Key:
[1] = molecular target: T1, glutathione S-transferase (GST)-fused full-length human Syk protein (Homo sapiens, UniProt P43405); assay: Syk enzyme assay; type: biochemical; conditions: Syk enzyme assay, Test Example 1; read-out: IC50 of Syk-inhibitory activity
T1 construct: (GST)-fused full-length human Syk protein; GST (glutathione S-transferase); purchased Carna Biosciences
Outline: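 Baculovirus-expressed enzyme (1.2 ng) was preincubated with compound in HEPES pH 7.0/MgCl2/DTT buffer, 2 min shaking then 13 min at room temperature. Biotin-EDPDYEWPSA-NH2 (0.4 μM final) and ATP (27 μM final) were added for 40 min at room temperature. EDTA stop, streptavidin-XL/PT66-K TR-FRET at 615/665 nm gave IC50.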

THP-1 cells = assay: TNFα generation assay; type: cell-based, human; conditions: Table 22, read-out: IC50 in TNFα generation assay
Outline: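 THP-1 cells differentiated to macrophage-like cells with 10 ng/ml IFN-γ for 2 days, preincubated with compound 30 min at room temperature, then cultured 7 h on plates coated with human IgG (10 μg/ml). Secreted TNFα measured by ELISA or AlphaLISA.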

[2] = Homo sapiens, THP-1, THP-1 cells

Row | IC50 [1] | IC50 (THP-1 cells; THP-1 cells) | IC50 (THP-1 cells; [2]) | SMILES
1 | < 10 nM | < 65 nM | – | NC(=O)c1cc(F)c(N[C@@H]2CCCC[C@@H]2N)nc1Nc1cncc(-c2ccccc2F)c1 [Example 006-166, 6-(((1R,2S)-2-aminocyclohexyl)amino)-5-fluoro-2-((5-(2-fluorophenyl)pyridin-3-yl)amino)fluoronicotinamide]
2 | < 10 nM | – | < 65 nM | NC(=O)c1cc(F)c(N[C@@H]2CCCC[C@@H]2N)nc1Nc1cncc(C2CC2)c1 [Example 006-167, 6-(((1R,2S)-2-aminocyclohexyl)amino)-2-((5-cycylopropylpyridin-3-yl)amino)-5-fluoronicotinamide]
3 | < 10 nM | < 65 nM | – | NC(=O)c1cc(F)c(N[C@@H]2CCCC[C@@H]2N)nc1Nc1cncc(-n2cccn2)c1 [Example 006-168, 2-((5-(1H-pyrazol-1-yl)pyridin-3-yl)amino)-6-(((1R,2S)-2-aminocyclohexyl)amino)-5-fluoronicotinamide]
4 | < 10 nM | – | < 65 nM | CCCOc1cc(Nc2nc(N[C@@H]3CCCC[C@@H]3N)c(F)cc2C(N)=O)ccn1 [Example 006-169, 6-(((1R,2S)-2-aminocyclohexyl)amino)-5-fluoro-2-((2-propoxypyridin-4-yl)amino)nicotinamide]
5 | < 10 nM | – | 65 to 130 nM | CC(C)C[C@H](CN)Nc1nc(Nc2cncc(-n3cccn3)c2)c(C(N)=O)cc1F [Example 006-170, (R)-2-((5-(1H-pyrazol-1-yl)pyridin-3-yl)amino)-6-((1-amino-4-methylpentan-2-yl)amino)-5-fluoronicotinamide]
6 | < 10 nM | 65 to 130 nM | – | COc1ccc2cc(Nc3nc(N[C@@H]4CCCC[C@@H]4N)c(F)cc3C(N)=O)cnc2c1 [Example 006-172, 6-(((1R,2S)-2-aminocyclohexyl)amino)-5-fluoro-2-((7-methoxyquinolin-3-yl)amino)nicotinamide]
7 | < 10 nM | – | 65 to 130 nM | COc1ccc2cc(Nc3nc(N[C@@H](CN)CC(C)C)c(F)cc3C(N)=O)cnc2c1 [Example 006-176, (R)-6-((1-amino-4-methylpentan-2-yl)amino)-5-fluoro-2-((7-methoxyquinolin-3-yl)amino)nicotinamide]
8 | < 10 nM | – | < 65 nM | CC[C@@H](Nc1nc(Nc2ccc3ncccc3c2)c(C(N)=O)cc1F)[C@H](C)N [Example 006-178, 6-(((2S,3R)-2-aminopentan-3-yl)amino)-5-fluoro-2-((quinolin-6-yl)amino)nicotinamide]
9 | < 10 nM | – | 130 to 200 nM | CC(C)C[C@H](CN)Nc1nc(Nc2cncc(Cl)c2)c(C(N)=O)cc1F [Example 006-180, (R)-6-((1-amino-4-methylpentan-2-yl)amino)-2-((5-chloropyridin-3-yl)amino)-5-fluoronicotinamide]
10 | < 10 nM | – | < 65 nM | NC[C@H](Nc1nc(Nc2ccc3ncccc3c2)c(C(N)=O)cc1F)C1CC1 [Example 006-186, (R)-6-((2-amino-1-cyclopropylethyl)amino)-5-fluoro-2-((quinolin-6-yl)amino)nicotinamide]
11 | < 10 nM | – | < 65 nM | CC[C@@H](Nc1nc(Nc2cnc3cc(OC)ccc3c2)c(C(N)=O)cc1F)[C@H](C)N [Example 006-190, 6-(((2S,3R)-2-aminopentan-3-yl)amino)-5-fluoro-2-((7-methoxyquinolin-3-yl)amino)nicotinamide]
12 | < 10 nM | – | 65 to 130 nM | CC[C@H](N)[C@@H](C)Nc1nc(Nc2ccc3ncccc3c2)c(C(N)=O)cc1F [Example 006-198, 6-(((2R,3S)-3-aminopentan-2-yl)amino)-5-fluoro-2-((quinolin-6-yl)amino)nicotinamide]
13 | < 10 nM | – | 65 to 130 nM | CC[C@H](N)[C@@H](CC)Nc1nc(Nc2ccc3ncccc3c2)c(C(N)=O)cc1F [Example 006-199, 6-(((3R,4S)-4-aminohexan-3-yl)amino)-5-fluoro-2-((quinolin-6-yl)amino)nicotinamide]
14 | < 10 nM | – | 65 to 130 nM | CCC[C@@H](Nc1nc(Nc2ccc3ncccc3c2)c(C(N)=O)cc1F)[C@@H](N)CC [Example 006-200, 6-(((3S,4R)-3-aminoheptan-4-yl)amino)-5-fluoro-2-((quinolin-6-yl)amino)nicotinamide]
15 | < 10 nM | – | 130 to 200 nM | CC[C@H](N)[C@@H](CC(C)C)Nc1nc(Nc2ccc3ncccc3c2)c(C(N)=O)cc1F [Example 006-201, 6-(((4R,5S)-5-amino-2-methylheptan-4-yl)amino)-5-fluoro-2-((quinolin-6-yl)amino)nicotinamide]
16 | < 10 nM | – | 65 to 130 nM | CCC[C@@H](Nc1nc(Nc2cnc3cc(OC)ccc3c2)c(C(N)=O)cc1F)[C@H](C)N [Example 006-204, 6-(((2S,3R)-2-aminohexan-3-yl)amino)-5-fluoro-2-((7-methoxyquinolin-3-yl)amino)nicotinamide]

Row | IC50 [1] | IC50 (THP-1 cells; THP-1 cells) | IC50 (THP-1 cells; [2]) | SMILES
17 | < 10 nM | – | 130 to 200 nM | COc1ccc2cc(Nc3nc(N[C@H](CC(C)C)[C@H](C)N)c(F)cc3C(N)=O)cnc2c1 [Example 006-206, 6-(((2S,3R)-2-amino-5-methylhexan-3-yl)amino)-5-fluoro-2-((7-methoxyquinolin-3-yl)amino)nicotinamide]
18 | < 10 nM | – | < 65 nM | CCC[C@@H](Nc1nc(Nc2ccc3ncccc3c2)c(C(N)=O)cc1F)[C@H](C)N [Example 006-207, 6-(((2S,3R)-2-aminohexan-3-yl)amino)-5-fluoro-2-((quinolin-6-yl)amino)nicotinamide]
19 | < 10 nM | – | 65 to 130 nM | CCCC[C@@H](Nc1nc(Nc2ccc3ncccc3c2)c(C(N)=O)cc1F)[C@H](C)N [Example 006-208, 6-(((2S,3R)-2-aminoheptan-3-yl)amino)-5-fluoro-2-((quinolin-6-yl)amino)nicotinamide]
20 | < 10 nM | – | 65 to 130 nM | CC(C)C[C@@H](Nc1nc(Nc2ccc3ncccc3c2)c(C(N)=O)cc1F)[C@H](C)N [Example 006-209, 6-(((2S,3R)-2-amino-5-methylhexan-3-yl)amino)-5-fluoro-2-((quinolin-6-yl)amino)nicotinamide]
21 | < 10 nM | – | < 65 nM | CC[C@@H](Nc1nc(Nc2ccc3c(cnn3C)c2)c(C(N)=O)cc1F)[C@H](C)N [Example 006-210, 6-(((2S,3R)-2-aminopentan-3-yl)amino)-5-fluoro-2-((1-methyl-1H-indazol-5-yl)amino)nicotinamide]
22 | < 10 nM | – | 130 to 200 nM | CC(C)C[C@H](CN)Nc1nc(Nc2ccc3nccnc3c2)c(C(N)=O)cc1F [Example 006-212, (R)-6-((1-amino-4-methylpentan-2-yl)amino)-5-fluoro-2-((quinoxalin-6-yl)amino)nicotinamide]
23 | < 10 nM | – | 65 to 130 nM | NC[C@@H](CC1CC1)Nc1nc(Nc2ccc3ncccc3c2)c(C(N)=O)cc1F [Example 006-214, (R)-6-((1-amino-3-cyclopropylpropan-2-yl)amino)-5-fluoro-2-((quinolin-6-yl)amino)nicotinamide]
24 | < 10 nM | – | 65 to 130 nM | COc1ccc2cc(Nc3nc(N[C@@H](CN)CC4CC4)c(F)cc3C(N)=O)cnc2c1 [Example 006-215, (R)-6-((1-amino-3-cyclopropylpropan-2-yl)amino)-5-fluoro-2-((7-methoxyquinolin-3-yl)amino)nicotinamide]
25 | 10 to 50 nM | – | 65 to 130 nM | C[C@H](N)[C@@H](C)Nc1nc(Nc2cncc(Cl)c2)c(C(N)=O)cc1F [Example 006-216, 6-(((2R,3S)-3-aminobutan-2-yl)amino)-2-((5-chloropyridin-3-yl)amino)-5-fluoronicotinamide]
26 | < 10 nM | – | < 65 nM | C[C@H](N)[C@@H](CC1CC1)Nc1nc(Nc2ccc3ncccc3c2)c(C(N)=O)cc1F [Example 006-217, 6-(((2R,3S)-3-amino-1-cyclopropylbutan-2-yl)amino)-5-fluoro-2-((quinolin-6-yl)amino)nicotinamide]
27 | < 10 nM | – | 65 to 130 nM | CC[C@@H](Nc1nc(Nc2cncc(-n3cccn3)c2)c(C(N)=O)cc1F)[C@H](C)N [Example 006-218, 2-((5-(1H-pyrazol-1-yl)pyridin-3-yl)amino)-6-(((2S,3R)-2-aminopentan-3-yl)amino)-5-fluoronicotinamide]
28 | < 10 nM | – | < 65 nM | CCC[C@@H](Nc1nc(Nc2ccnc(-c3ccco3)c2)c(C(N)=O)cc1F)[C@H](C)N [Example 006-220, 6-(((2S,3R)-2-aminohexan-3-yl)amino)-5-fluoro-2-((2-(furan-2-yl)pyridin-4-yl)amino)nicotinamide]
29 | < 10 nM | – | 65 to 130 nM | CCC[C@@H](Nc1nc(Nc2ccnc(-n3nccn3)c2)c(C(N)=O)cc1F)[C@H](C)N [Example 006-221, 2-((2-(2H-1,2,3-triazol-2-yl)pyridin-4-yl)amino)-6-(((2S,3R)-2-aminohexan-3-yl)amino)-5-fluoronicotinamide]
30 | < 10 nM | – | 65 to 130 nM | CCC[C@@H](Nc1nc(Nc2cncc(-c3ccccc3F)c2)c(C(N)=O)cc1F)[C@H](C)N [Example 006-222, 6-(((2S,3R)-2-aminohexan-3-yl)amino)-5-fluoro-2-((5-(2-fluorophenyl)pyridin-3-yl)amino)nicotinamide]
31 | < 10 nM | – | < 65 nM | CCC[C@@H](Nc1nc(Nc2cncc(C3CC3)c2)c(C(N)=O)cc1F)[C@H](C)N [Example 006-223, 6-(((2S,3R)-2-aminohexan-3-yl)amino)-2-((5-cyclopropylpyridin-3-yl)amino)-5-fluoronicotinamide]
